Results from patent US5656256A (The University of North Carolina at Chapel Hill, priority 1994, dated 1997).

Assays:
[1] = biological target: T1, airway epithelial Na+ channels (Homo sapiens, UniProt P37088+P51168+P51170); experiment: Short-circuit current (Isc) measurement of sodium transport in cultured human nasal epithelium, Ussing chamber; type: cell-based; conditions: for concentration achieving the same level of complete sodium channel blocking, less than amiloride: apical surface of human nasal epithelium, relative to amiloride
T1 construct: Cells from freshly excised specimens are protease isolated; endogenous in cells
T1 sequence (P37088 1-669): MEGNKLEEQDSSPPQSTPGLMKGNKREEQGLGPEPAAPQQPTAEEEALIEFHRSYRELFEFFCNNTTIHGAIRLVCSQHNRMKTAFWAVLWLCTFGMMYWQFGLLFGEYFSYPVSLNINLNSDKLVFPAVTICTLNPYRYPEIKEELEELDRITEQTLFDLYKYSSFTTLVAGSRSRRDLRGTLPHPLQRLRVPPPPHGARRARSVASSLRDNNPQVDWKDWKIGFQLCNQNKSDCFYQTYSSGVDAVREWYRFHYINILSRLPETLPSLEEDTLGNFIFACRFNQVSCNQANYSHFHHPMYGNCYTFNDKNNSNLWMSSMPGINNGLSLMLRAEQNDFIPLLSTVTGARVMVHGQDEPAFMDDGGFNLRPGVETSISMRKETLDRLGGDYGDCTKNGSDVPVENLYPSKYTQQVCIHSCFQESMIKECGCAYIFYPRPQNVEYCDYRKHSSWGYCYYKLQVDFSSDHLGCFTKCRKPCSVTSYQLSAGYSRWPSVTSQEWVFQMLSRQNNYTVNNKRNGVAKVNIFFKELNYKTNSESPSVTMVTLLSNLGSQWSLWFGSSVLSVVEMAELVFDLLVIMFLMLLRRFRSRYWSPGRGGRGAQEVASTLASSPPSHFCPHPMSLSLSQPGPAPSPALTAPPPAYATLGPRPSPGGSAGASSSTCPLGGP
T1 sequence (P51168 1-640): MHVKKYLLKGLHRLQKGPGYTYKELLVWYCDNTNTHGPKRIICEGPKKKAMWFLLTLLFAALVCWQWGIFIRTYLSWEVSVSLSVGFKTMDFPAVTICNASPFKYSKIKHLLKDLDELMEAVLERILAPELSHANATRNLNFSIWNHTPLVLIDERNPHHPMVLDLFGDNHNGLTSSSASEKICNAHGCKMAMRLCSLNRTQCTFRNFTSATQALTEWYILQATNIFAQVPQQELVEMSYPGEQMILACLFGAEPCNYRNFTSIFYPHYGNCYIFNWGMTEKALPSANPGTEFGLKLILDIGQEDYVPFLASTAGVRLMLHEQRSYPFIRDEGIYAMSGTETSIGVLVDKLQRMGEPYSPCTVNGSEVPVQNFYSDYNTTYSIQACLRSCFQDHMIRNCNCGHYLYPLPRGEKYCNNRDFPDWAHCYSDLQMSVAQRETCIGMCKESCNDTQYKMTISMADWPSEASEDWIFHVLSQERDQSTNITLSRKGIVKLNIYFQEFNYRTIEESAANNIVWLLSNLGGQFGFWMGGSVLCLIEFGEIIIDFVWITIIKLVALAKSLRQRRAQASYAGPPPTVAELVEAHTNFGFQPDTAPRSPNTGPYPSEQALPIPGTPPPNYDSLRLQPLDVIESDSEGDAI
T1 sequence (P51170 1-649): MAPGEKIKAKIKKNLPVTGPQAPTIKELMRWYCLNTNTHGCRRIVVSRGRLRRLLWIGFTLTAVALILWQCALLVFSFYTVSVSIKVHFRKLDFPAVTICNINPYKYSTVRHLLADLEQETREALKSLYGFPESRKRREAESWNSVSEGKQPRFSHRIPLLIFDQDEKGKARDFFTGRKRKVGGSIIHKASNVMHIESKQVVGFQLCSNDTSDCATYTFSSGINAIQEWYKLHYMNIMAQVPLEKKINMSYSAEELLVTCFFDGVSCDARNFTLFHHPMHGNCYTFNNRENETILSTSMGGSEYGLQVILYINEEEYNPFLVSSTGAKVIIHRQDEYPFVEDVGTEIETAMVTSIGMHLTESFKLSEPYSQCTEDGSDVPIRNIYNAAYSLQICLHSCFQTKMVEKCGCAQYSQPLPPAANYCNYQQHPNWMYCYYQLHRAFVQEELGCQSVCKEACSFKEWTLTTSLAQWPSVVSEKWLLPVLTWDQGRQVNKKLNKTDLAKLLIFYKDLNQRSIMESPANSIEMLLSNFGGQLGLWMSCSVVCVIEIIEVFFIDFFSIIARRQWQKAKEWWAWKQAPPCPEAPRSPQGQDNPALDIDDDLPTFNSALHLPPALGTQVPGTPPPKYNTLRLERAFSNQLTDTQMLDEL
Protocol: The cell culture procedures used in this example are performed as described in Willumsen, N. J., et al., Am. J. Physiol. 256:C1033-C1044 (Cell. Physiol. 25) (1989) and Yankaskas, J. R., et al., Am. Rev. Respir. Dis. 132:1281-1287 (1985). Cells from freshly excised specimens are protease isolated with protease XIV (Sigma, St, Louis, Mo.), concentrated,and plated on collagen membranes in the bottom of plastic-tissue culture cups. The cells are fed for 5 days with serum-free F-12 medium containing the following additives (F-12/7X): insulin, epidermal growth factor, cholera toxin, transferrin, hydrocortisone, triiodothyronine, and endothelial cell growth substance. Subsequently, they are fed with F-12/7X media supplemented (1:1) with 3T3 fibroblast-conditioned media containing 1% fetal bovine serum. After the fifth day in culture, the transepithelial potential difference (PD) developed by the culture is measured daily to detect the occurrence of confluency. Cell preparations are routinely studied within 1 day of the development of the maximal PD.
J. Physiol. (Cell Physiol. 25) 256:C1033-C1053 (1989).
The tissue preparation described in Example 1 is mounted in a modified (superfusion, not recirculating), miniature Ussing chamber interfaced to a voltage clamp that measures transepithelial PD and the PD response to constant current (I) pulses. The chamber contains 1 ml of bathing solution for each (apical; basolateral) surface of the preparation. The solution used as the vehicle for drug delivery is a Krebs bicarbonate Ringer solution (KBR) which approximates the ionic composition of plasma. This solution is warmed (37°) and gassed (95% oxygen, 5% CO2) to maintain pH 7.4. The cultured cells are superfused on both surfaces with KBR.
The measurement of sodium transport rates is performed by recording the spontaneous transepithelial PD (Vt) and responses of the PD to constant current pulses. From the relationship between Vt and induced Vt deflections, the transepithelial resistance (Rt) is calculated. The short-circuit current (Isc), or measure of sodium transport rate, is determined as Isc =Vt /Rt.
Each cultured human airway epithelial preparation is exposed to different concentrations (10^-8 M-10^-3 M) of a sodium-channel blocking drug on either the basolateral or apical surface for the dose response studies. To construct concentration-effect relationships of the response to the drugs, it was assumed that the same maximum response to a drug could be induced from each tissue culture preparation from the same individual.

[2] = biological target: T1, airway epithelial Na+ channels; experiment: Persistence of Na+ absorption blockade after washout of drug, Ussing chamber; type: cell-based; conditions: 10^-5 M for 5 minutes to the luminal surface, then KBR perfusion; time for Isc to return to basal
Text: In vivo, drug is delivered to the lungs as a single bolus. […] This Example illustrates the contribution of binding of drug to the target site (2) to the duration of drug action.
A protocol was designed to measure the duration of drug action after removal of drug from the airway surface liquid compartment. For this protocol, human airway epithelial preparations as described in Example 1 are mounted in modified Ussing chambers and interfaced to voltage clamps as described above in Example 2. Basal measurements of Isc in KBR are made and the steady state response to a 5 minute administration of a single maximal effective concentration (10^-5 M) of drug delivered to the luminal surface is measured. Following this step, administration of the drug is stopped, the lumen is perfused with standard KBR solutions, and the time required for Isc to return to baseline or basal levels is measured.

Row | SMILES | potency as blocker of apical Na+ channels (in words) ([1]; steady-state inhibition of Na+ transport, human nasal epithelia) | concentration achieving the same level of complete sodium channel blocking, less than amiloride [1] | potency compared to amiloride (more potent by) [1] | duration of activity after washout compared to amiloride [2]
1 | N=C(N)NC(=O)c1nc(Cl)c(N)nc1N [amiloride] | significantly less potent than benzamil or phenamil | – | – | –
2 | NC(=NCc1ccccc1)NC(=O)c1nc(Cl)c(N)nc1N [benzamil, 3,5-diamino-6-chloro-N-(benzylaminoaminomethylene)pyrazinecarboxamide] | – | approximately one | 1-1.5 log-concentration units | almost twice as long as amiloride
3 | NC(=Nc1ccccc1)NC(=O)c1nc(Cl)c(N)nc1N [phenamil, 3,5-diamino-6-chloro-N-(phenylaminoaminomethylene)pyrazinecarboxamide] | – | approximately one | 1-1.5 log-concentration units | almost twice as long as amiloride
